These results are taken from patent US11603373B2, “TDO2 and IDO1 inhibitors” (Genentech, Inc., priority 2017, dated 2023).

Assay [1] deals with T1, TDO2 (SW48 cells, high TDO expressing cells) (Homo sapiens, UniProt P48775).
T1 construct: SW48 cells (high TDO expressing cells); endogenous in cells; host or cells: SW48 cells
In words: NFK GreenScreen cell assay, inhibition of TDO in SW48 cells. The conditions noted are these: read-out: TDO2 Cell Fluor EC50. In kind it is cell-based. The text has this: (§1) Cells are counted on a Vi-Cell (Beckman Coulter). […] The final DMSO concentration is 0.5%.

The target of assay [2] is T2, IDO1 (A172+IFNg cells, high IDO expressing cells) (Homo sapiens, UniProt P14902).
T2 construct: A172+IFNg cells (high IDO expressing cells); endogenous in cells; host or cells: A172 cells induced with 100 ng/ml IFNγ
T2 sequence (P14902 whole entry): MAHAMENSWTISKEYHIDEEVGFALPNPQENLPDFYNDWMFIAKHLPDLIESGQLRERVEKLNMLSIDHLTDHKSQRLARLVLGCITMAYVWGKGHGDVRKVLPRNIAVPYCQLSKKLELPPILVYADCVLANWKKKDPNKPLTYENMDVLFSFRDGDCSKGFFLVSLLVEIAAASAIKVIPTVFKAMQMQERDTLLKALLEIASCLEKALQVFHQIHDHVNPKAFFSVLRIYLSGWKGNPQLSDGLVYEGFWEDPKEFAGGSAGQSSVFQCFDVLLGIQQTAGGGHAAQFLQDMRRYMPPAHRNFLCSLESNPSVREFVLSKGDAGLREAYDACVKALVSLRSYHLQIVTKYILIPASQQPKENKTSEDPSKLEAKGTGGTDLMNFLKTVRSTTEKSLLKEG
The assay is described as follows: NFK GreenScreen cell assay, inhibition of IDO in A172+IFNg cells. It is filed as cell-based. The conditions noted are these: read-out: IDO cell Fluor EC50.
Source text: as §1

T1 sequence (P48775 whole entry): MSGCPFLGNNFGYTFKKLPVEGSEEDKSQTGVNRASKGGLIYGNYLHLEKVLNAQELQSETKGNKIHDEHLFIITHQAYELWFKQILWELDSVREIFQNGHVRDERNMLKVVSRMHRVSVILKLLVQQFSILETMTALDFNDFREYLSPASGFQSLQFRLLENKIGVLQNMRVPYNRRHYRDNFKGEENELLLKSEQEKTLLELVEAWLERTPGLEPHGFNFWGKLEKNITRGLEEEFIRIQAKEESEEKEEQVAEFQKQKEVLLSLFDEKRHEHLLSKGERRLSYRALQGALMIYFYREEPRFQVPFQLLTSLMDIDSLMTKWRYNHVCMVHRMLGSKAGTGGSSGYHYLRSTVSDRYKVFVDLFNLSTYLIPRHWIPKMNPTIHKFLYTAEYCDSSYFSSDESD

What is called EC50 is the concentration needed to bring the measured effect to its halfway point. With `NS(=O)(=O)N1CCC2(CC1)C[C@H]([C@H]1c3ccccc3-c3cncn31)[C@H]2O` (single isomer, unassigned) [Example 11g], the concentration for a half-maximal effect (EC50) turned out to be 930 nM in assay [1] and 4700 nM in assay [2].
For `CC(C)(C)OC(=O)N1[C@@H]2CC[C@H]1C[C@@]1(C[C@@H]([C@H]3c4ccccc4-c4cncn43)[C@H]1O)C2` (single isomer, unassigned) [Example 12b], in that order: 21000 nM and 8100 nM.
Taken in the same sequence, the figures for `CC(C)(C)OC(=O)N1[C@@H]2CC[C@H]1C[C@]1(C[C@H]([C@H]3c4ccccc4-c4cncn43)[C@@H]1O)C2` (single isomer, unassigned) [Example 12c] were 520 nM and 1900 nM.
For `CC(C)(C)OC(=O)N1[C@@H]2CC[C@H]1C[C@@]1(C[C@@H]([C@@H]3c4ccccc4-c4cncn43)[C@H]1O)C2` (single isomer, unassigned) [Example 12d], in that order: 9800 nM and 4300 nM.
In the case of `CC(C)(C)OC(=O)N1[C@@H]2CC[C@H]1C[C@]1(C[C@@H]([C@@H]3c4ccccc4-c4cncn43)[C@@H]1O)C2` (single isomer, unassigned) [Example 12e], the figures for the concentration for a half-maximal effect (EC50) in assay [1] and in assay [2] were 1500 nM and 3900 nM, respectively.
With `CC(C)(C)OC(=O)N1[C@@H]2CC[C@H]1C[C@@]1(C[C@H]([C@H]3c4ccccc4-c4cncn43)[C@H]1O)C2` (single isomer, unassigned) [Example 12f], the values for the half-maximal effective concentration (EC50) in assay [1] and in assay [2] were 11000 nM and 1900 nM, respectively.
As for `CC(C)(C)OC(=O)N1[C@@H]2CC[C@H]1C[C@]1(C[C@H]([C@@H]3c4ccccc4-c4cncn43)[C@H]1O)C2` (single isomer, unassigned) [Example 12g], the concentration for a half-maximal effect (EC50) stood at 2100 nM in assay [1] and 4700 nM in assay [2].
Taken in the same sequence, the figures for `CC(C)(C)OC(=O)N1[C@@H]2CC[C@H]1C[C@@]1(C[C@@H]([C@H]3c4ccccc4-c4cncn43)[C@@H]1O)C2` (single isomer, unassigned) [Example 12h] were 13000 nM and 7000 nM.
As for `CC(C)(C)OC(=O)N1[C@@H]2CC[C@H]1C[C@@]1(C[C@H]([C@@H]3c4ccccc4-c4cncn43)[C@@H]1O)C2` (single isomer, unassigned) [Example 12i], the 50% effective concentration (EC50) in assay [1] worked out at 13000 nM; in assay [2], 5800 nM.
As for `CC(C)(C)OC(=O)N1[C@@H]2CC[C@H]1C[C@]1(C[C@@H]([C@H]3c4ccccc4-c4cncn43)[C@H]1O)C2` (single isomer, unassigned) [Example 12j], the 50% effective concentration (EC50) in assay [1] worked out at 740 nM; in assay [2] it was 120 nM.
For the compound `CC(C)(C)OC(=O)N1[C@@H]2CC[C@H]1C[C@@]1(C[C@H]([C@H]3c4ccccc4-c4cncn43)[C@@H]1O)C2` (single isomer, unassigned) [Example 12k], the values for the EC50 in assay [1] and in assay [2] were 15000 nM and 13000 nM, respectively.
Taken in the same sequence, the figures for `CC(C)(C)OC(=O)N1[C@@H]2CC[C@H]1C[C@]1(C[C@@H]([C@@H]3c4ccccc4-c4cncn43)[C@H]1O)C2` (single isomer, unassigned) [Example 12l] were 410 nM and 12000 nM.
In the case of `CC(C)(C)OC(=O)N1[C@@H]2CC[C@H]1C[C@@]1(C[C@@H]([C@@H]3c4ccccc4-c4cncn43)[C@@H]1O)C2` (single isomer, unassigned) [Example 12m], the EC50 in assay [1] was 15000 nM; in assay [2], 2000 nM.
For `O=S1(=O)CCC2(CC[C@H]([C@@H]3c4ccccc4-c4cncn43)[C@@H]2O)CC1` (single isomer, unassigned) [Example 13b], in that order: 3300 nM and 7200 nM.
For `O=S(=O)(C(F)F)N1CCC2(CC1)C[C@@H]([C@H]1c3ccccc3-c3cncn31)[C@H]2O` (single isomer, unassigned) [Example 14b], in that order: 130 nM and 68 nM.
For `CP(C)(=O)N1CCC2(CC1)C[C@@H]([C@H]1c3ccccc3-c3cncn31)[C@H]2O` (single isomer, unassigned) [Example 15b], in that order: 1500 nM and 1100 nM.
With `CC(=O)N1CC2(CC[C@H]([C@@H]3c4ccccc4-c4cncn43)[C@H]2O)C1` (single isomer, unassigned) [Example 17], the EC50 in assay [1] was 670 nM; in assay [2], 1300 nM.
Turning to `NS(=O)(=O)N1CC2(CC[C@H]([C@@H]3c4ccccc4-c4cncn43)[C@H]2O)C1` (single isomer, unassigned) [Example 18], the EC50 in assay [1] was 110 nM; in assay [2], 580 nM.
For `COCCOC(=O)N1CCC2(CC[C@@H]([C@H]3c4ccccc4-c4cncn43)[C@H]2O)CC1` (single isomer, unassigned) [Example 19], in that order: 94 nM and 99 nM.
For `CC(C)(C)OC(=O)N1CC2CCC(C1)C21C[C@@H]([C@H]2c3ccccc3-c3cncn32)[C@H]1O` (single isomer, unassigned) [Example 22b], in that order: 5000 nM and 12000 nM.
For `CC(C)(C)OC(=O)N[C@H]1CC[C@@]2(CC1)C[C@H]([C@@H]1c3ccccc3-c3cncn31)[C@H]2O` (single isomer, unassigned) [Example 24a], in that order: 6900 nM and 4400 nM.
Turning to `CC(C)(C)OC(=O)N[C@H]1CC[C@@]2(CC1)C[C@@H]([C@H]1c3ccccc3-c3cncn31)[C@@H]2O` (single isomer, unassigned) [Example 24b], the half-maximal effective concentration (EC50) came out at 2100 nM in assay [1] and 1300 nM in assay [2].
For `CC(C)(C)OC(=O)N[C@H]1CC[C@]2(CC1)C[C@H]([C@@H]1c3ccccc3-c3cncn31)[C@H]2O` (single isomer, unassigned) [Example 24c], in that order: 730 nM and 5200 nM.
Taken in the same sequence, the figures for `CC(C)(C)OC(=O)N[C@H]1CC[C@@]2(CC1)C[C@@H]([C@@H]1c3ccccc3-c3cncn31)[C@H]2O` (single isomer, unassigned) [Example 24d] were 2500 nM and 1100 nM.
For `CC(C)(C)OC(=O)N[C@H]1CC[C@@]2(CC1)C[C@H]([C@H]1c3ccccc3-c3cncn31)[C@@H]2O` (single isomer, unassigned) [Example 24e], in that order: 16000 nM and 10000 nM.
Turning to `CC(C)(C)OC(=O)N[C@H]1CC[C@]2(CC1)C[C@@H]([C@@H]1c3ccccc3-c3cncn31)[C@@H]2O` (single isomer, unassigned) [Example 24h], the results for the EC50 in assay [1] and in assay [2] were 16000 nM and 5400 nM, respectively.
Taken in the same sequence, the figures for `CC(C)(C)OC(=O)N[C@H]1CC[C@]2(CC1)C[C@H]([C@H]1c3ccccc3-c3cncn31)[C@H]2O` (single isomer, unassigned) [Example 24i] were 260 nM and 960 nM.
With `CC(C)(C)OC(=O)N[C@H]1CC[C@@]2(CC1)C[C@@H]([C@H]1c3ccccc3-c3cncn31)[C@@H]2O` (single isomer, unassigned) [Example 24j], the concentration giving a half-maximal response (EC50) in assay [1] was determined as 140 nM; in assay [2], 640 nM.
For `CC(C)(C)OC(=O)N[C@H]1CC[C@@]2(CC1)C[C@@H]([C@H]1c3ccccc3-c3cncn31)[C@H]2O` (single isomer, unassigned) [Example 24l], in that order: 8600 nM and 1900 nM.
Taken in the same sequence, the figures for `CC(C)(C)OC(=O)N[C@H]1CC[C@]2(CC1)C[C@H]([C@H]1c3ccccc3-c3cncn31)[C@@H]2O` (single isomer, unassigned) [Example 24n] were 1100 nM and 240 nM.
As to `CC(C)(C)OC(=O)N[C@H]1CC[C@@]2(CC1)C[C@H]([C@@H]1c3ccccc3-c3cncn31)[C@@H]2O` (single isomer, unassigned) [Example 24p], the concentration for a half-maximal effect (EC50) in assay [1] turned out to be 3300 nM; in assay [2], 920 nM.
Take `O=C([C@@H]1CC1(F)F)N1CCC2(CC[C@@H]([C@H]3c4ccccc4-c4cncn43)[C@H]2O)CC1` (single isomer, unassigned) [Example 25a]: the concentration for a half-maximal effect (EC50) came to 81 nM in assay [1] and 34 nM in assay [2].
On to `O=C([C@H]1CC1(F)F)N1CCC2(CC[C@@H]([C@H]3c4ccccc4-c4cncn43)[C@H]2O)CC1` (single isomer, unassigned) [Example 25b], for which the figures for the 50% effective concentration (EC50) in assay [1] and in assay [2] were 150 nM and 160 nM, respectively.
Taken in the same sequence, the figures for `CS(=O)(=O)N1CC2(CCC(C3c4ccccc4-c4cncn43)C2O)C1` (single isomer, unassigned) [compound 16, 6-(5H imidazo[5,1-a]isoindol-5-yl)-2-(methylsulfonyl)-2-azaspiro[3.4]octan-5-ol] were 95 nM and 220 nM.
Turning to `O=S(=O)(c1c[nH]cn1)N1CCC2(CCC(C3c4ccccc4-c4cncn43)C2O)CC1` (single isomer, unassigned) [compound 59, 8-((1H-imidazol-4-yl)sulfonyl)-2-(5H-imidazo[5,1-a]isoindol-5-yl)-8-azaspiro[4.5]decan-1-ol], the half-maximal effective concentration (EC50) in assay [1] stood at 2000 nM; in assay [2] it was 2800 nM.
Taken in the same sequence, the figures for `O=C(OCC(F)F)N1CCC2(CCC(C3c4ccccc4-c4cncn43)C2O)CC1` (single isomer, unassigned) [compound 60, 2,2-difluoroethyl 1-hydroxy-2-(5H-imidazo[5,1-a]isoindol-5-yl)-8-azaspiro[4.5]decane-8-carboxylate] were 56 nM and 40 nM.
For `CS(=O)(=O)N1CC2CCC(C1)C21CC(C2c3ccccc3-c3cncn32)C1O` (single isomer, unassigned) [compound 70, 3′(5H-imidazo[5,1-a]isoindol-5-yl)-3-(methylsulfonyl)-3-azaspiro[bicyclo[3.2.1]octane-8,1′-cyclobutan]-2′-ol], in that order: 140 nM and 150 nM.
